Common to all, as to type: cell-based
Assay [1] concerns LNCaP, DU-145 and PC-3M cells. Description: Matrigel in vitro invasion assay. Particulars: 50 nM CT, 48 h. How it is done:
Invasion experiments were conducted in Matrigel™ invasion chambers as previously described (Sabbisetti et al., 2005).
(§1) Whether CT produces similar effects in LNCaP, PC-3M and DU-145 cell lines, which endogenously express CTR, was examined as shown in FIG. 1A. FIGS. 9A-9B depict the effect of CT on tight junction (TJ) disruption as measured using TER and PCP in the three prostate cancer cell lines—LNCaP, PC-3M, and DU-145. Cells were serum-starved for 4 hours, then treated with and without 50 nM CT, before measuring TER as described above. In FIG. 9B, cells were treated with and without 50 nM CT, and PCP determined by diffusion of ˜4 kDa TRITC-conjugated dextran from the upper to the lower chamber in one hour. The results are expressed as μg/ml/hour of TRITC-Dextran diffused ±SEM (n=6; *p<0.05 (−CT v +CT, One way ANOVA and Newman-Keul's test)). FIG. 9C depicts effects of CT on cell invasion in the same three cell lines—PC-3M, LNCaP, and DU145. Cells were added to upper insert of invasion chambers with or without 50 nM CT, and cells that passed through the Matrigel™ barrier were counted after 48 h. The results are expressed as mean number of invaded cells per 400× field ±SEM (n=6; *p<0.05).

Assay [2] relates to LNCaP, PC-3M and DU-145 cell lines. Description: Transepithelial electric resistance (TER). Particulars: 50 nM CT. On the procedure: Cells were plated on Transwell filters (0.4 μm pore size) and grown to confluency in complete medium (RPMI1640 containing 10% fetal bovine serum, 20 mM HEPES and antibiotics). TER of the cultures (in duplicate wells) was measured at several time intervals with EVOM volt-ohm meter as previously described (Shah et al, 2009). The readings were corrected for blank (TER values from the filter in bathing medium). The integrity and cell density of monolayers were carefully monitored.
as §1, with “Cells were serum-starved for 4 hours, then treated with and without 50 nM CT, before measuring TER as described above.” left out, “FIG. 9C depicts effects of CT on cell invasion in the same three cell lines—PC-3M, LNCaP, and DU145.” left out

Assay [3] has as its system PC-3CTRwt cells. Description: Paracellular permeability (PCP), TRITC-dextran diffusion. How it is done:
For PCP measurements, cells were grown to confluence on Transwell filters. Tetra methyl rhodamine-dextran (1 mg/ml, ˜4 kDa, Sigma) was added to the upper chamber. Fluorescence of the lower chamber medium was measured in Modulus Microplate Reader (Turner Biosystems) at various time intervals.
TJs form a barrier that regulates the movement of ions, solutes and growth factors between cells. To detect whether CT affects the barrier, the diffusion of fluorophore-conjugated dextran was measured across polarized PC cell line monolayers, a procedure called paracellular permeability (PCP). FIG. 2B depicts CTR-C PDZ-binding motif mutation and tight junction (TJ) disruption as measured using PCP. Polarized PC-3V, PC-3-CTRwt and PC-3CTRΔESS cells were treated with or without 50 nM CT, and PCP determined by diffusion of ˜4 kDa TRITC-conjugated dextran from the upper to the lower chamber in one hour. The results are expressed as μg/ml/hour of TRITC-Dextran diffused ±SEM (n=6; *p<0.05 (−CT v +CT, One way ANOVA and Newman-Keul's test)). […]
The effect of CT on TJ functionality was tested by monitoring TER of PC-3CTRwt monolayers. […] TER was measured with EVOM volt-ohm meter. The results are expressed as TER ±SEM (Ωcm^2±SEM; n=6). […] PCP was determined by diffusion of ˜4 kDa TRITC-conjugated dextran from the upper to the lower chamber in one hour. […]

Entries after “also recorded” stand apart in the source; their conditions may differ.

Turning to calcitonin [CT], the invasion result in assay [1] was “significantly increased”. Also, the TER entry in assay [2] is recorded as “reduced TER”. The PCP result in assay [3] (50 nM CT) is recorded as “increased PCP significantly; also recorded: eighty percent”. Besides, the “PCP at multiple CT doses” value in assay [3] (CT doses of 10 nM or higher) is “induced an increase”.

Source of the values: patent publication US9765115B2, “Inhibitors of metastasis, methods of generating such inhibitors and their therapeutic applications” (Board of Supervisors of Louisiana State University acting …, priority 2011, dated 2017).
